In patent publication US20240226117A1, “TREATMENT OF CONGENITAL ADRENAL HYPOPLASIA” (ReveraGen BioPharma, Inc., priority 2021, published 2024):
Read-outs that look alike come from different tables or passages of the source.

Columns and labels:
[1] = target: T1, mineralocorticoid receptor (Homo sapiens, UniProt P08235); settings: background statement; cited from earlier work
T1 sequence (P08235 1-984): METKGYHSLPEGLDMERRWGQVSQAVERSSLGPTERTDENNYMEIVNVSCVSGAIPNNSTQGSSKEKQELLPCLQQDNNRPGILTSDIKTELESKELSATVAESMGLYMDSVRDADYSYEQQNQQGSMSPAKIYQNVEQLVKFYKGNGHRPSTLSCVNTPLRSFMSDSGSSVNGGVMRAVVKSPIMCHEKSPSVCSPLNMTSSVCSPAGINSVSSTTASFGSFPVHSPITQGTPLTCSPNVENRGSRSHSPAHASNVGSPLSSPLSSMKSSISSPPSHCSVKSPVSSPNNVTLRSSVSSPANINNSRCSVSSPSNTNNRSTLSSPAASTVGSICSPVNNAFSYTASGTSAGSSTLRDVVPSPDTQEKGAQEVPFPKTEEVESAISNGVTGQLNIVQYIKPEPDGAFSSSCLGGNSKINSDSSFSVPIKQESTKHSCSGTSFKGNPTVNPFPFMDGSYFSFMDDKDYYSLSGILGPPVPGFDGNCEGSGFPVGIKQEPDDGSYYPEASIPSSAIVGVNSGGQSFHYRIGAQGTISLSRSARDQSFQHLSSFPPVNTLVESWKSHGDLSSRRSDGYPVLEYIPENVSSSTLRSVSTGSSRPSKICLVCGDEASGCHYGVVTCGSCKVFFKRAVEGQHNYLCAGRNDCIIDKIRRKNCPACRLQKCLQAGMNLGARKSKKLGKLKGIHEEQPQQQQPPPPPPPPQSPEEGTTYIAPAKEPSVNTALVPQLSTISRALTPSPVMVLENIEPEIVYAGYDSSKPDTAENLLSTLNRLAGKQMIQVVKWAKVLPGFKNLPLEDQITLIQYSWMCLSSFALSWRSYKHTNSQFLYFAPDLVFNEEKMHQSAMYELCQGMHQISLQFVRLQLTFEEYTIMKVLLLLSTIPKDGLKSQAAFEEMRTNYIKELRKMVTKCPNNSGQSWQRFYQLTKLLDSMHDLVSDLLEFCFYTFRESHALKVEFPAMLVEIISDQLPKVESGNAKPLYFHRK

[2] = tested on: DMD subjects; settings: cited from earlier work
[3] = tested on: DMD participants; settings: cited from earlier work
[4] = tested on: ambulant boys with DMD; settings: male, human, in vivo, 24 weeks
[5] = tested on: ambulant boys with DMD; assay: VBP15-004 adverse events and behavior AESIs; settings: PDN 0.75 mg, N = 31, 24 weeks
[6] = tested on: DMD participants; assay: Prespecified safety evaluation: height percentile for age and BMI z-score; type: in vivo, human; settings: for Mean BMI z-score, change from baseline (SD): 0.75 mg/kg/day
Procedure: As with the […] comparators, group-matching criteria were prespecified in the iSAP, and 2 independent statisticians carried out the participant matching. […] There was no corresponding 12-month assessment in vamorolone-treated participants. (Assessments of vamorolone-treated trial participants were 0, 3, 6, and 18 months). Standing height and weight were assessed at each study visit. Height z-score, body mass index (BMI: kg/m^2), and BMI z-score were calculated centrally. AE reporting was done per protocol in the vamorolone trials. The current study is the first to evaluate the longer-term tolerability, efficacy, and safety of vamorolone in DMD. […] Given the variable timing of dose escalations, it was prespecified that initial analyses of drug-related efficacy and safety would be limited to those participants who had 18 months of treatment with 2.0 mg/kg/day vamorolone or more (dose group C+dose group D: n=23). Outcomes for these participants were compared to a group-matched cohort from the […] over 18 months (corticosteroid-naïve, n=19: corticosteroid-treated, n=68). Participants were matched for age and treatment period (+1 month), matching criteria were prespecified in the statistical analysis plan. Two independent statisticians carried out the matching. […] Participants in the corticosteroid-treated […] group were treated for at least 18 months, but the total duration, dose, and regimens varied. Statistical analyses were done on paired longitudinal outcome data using an analysis of covariance (ANCOVA) approach with change from baseline (VBP15-002) to month 18 (midpoint of VBP15-LTE). Baseline response and age were included as covariates. For the vamorolone-treated participants, age was calculated as (date of informed consent minus birthdate)/365.25. For the DNHS participants, age was calculated as (date of baseline visit used minus birthdate)/365.25. The baseline visit for a DNHS participant was the first visit. […] Timed function tests were analyzed as velocity scores to limit the impact of participants who could not perform the test (velocity=0). Velocity measures are variance-stabilizing transformations, suppressing extreme raw outliers from raw values in seconds; these help with distributional assumptions of the statistical models/tests used. Raw data (seconds) are also reported. Velocity scores for […] (event/second), TTRW (meters/second), and […] (event/second) were inputted as 0 at the first response missing due to inability to perform the test. All other data were observed values only, without imputation. No adjustments for multiplicity on inferential statistics were specified in the iSAP.

[7] = tested on: ambulant boys with DMD; assay: VBP15-004 growth (height Z score); type: in vivo, human; settings: prednisone 0.75 mg/kg/day
[8] = CINRG DNHS, deflazacort n = 94, prednisone n = 80
[9] = Griggs et al. 2016, 12-month trial, 0.9 mg/kg/day deflazacort (n = 68), 0.75 mg/kg/day prednisone (n = 63)
[10] = CINRG prednisone trial, daily 0.75 mg/kg/day, 12 months
[11] = vamorolone 18-month treatment versus prednisone trial 12-month treatment, ANCOVA

CC(=O)OCC(=O)[C@@]12N=C(C)O[C@@H]1C[C@H]1[C@@H]3CCC4=CC(=O)C=C[C@]4(C)[C@H]3[C@@H](O)C[C@@]12C [Deflazacort, deflazacort]
activity at the mineralocorticoid receptor [1]: agonists | LS Mean change in height percentiles for age ([2]; DMD children treated with deflazacort, N = 40, 12 months treatment): −11.4 | change in height percentile over a 12-month treatment period ([2]; Griggs et al. 2016, DMD): −11.43 percentile | Incidence of physician-reported Cushingoid [3, 8]: 72% | Incidence of physician-reported behavior change [3, 8]: 33% | Incidence of physician-reported weight gain [3, 8]: 63% | Incidence of physician-reported Cushingoid [3, 9]: 60.3% | Incidence of physician-reported behavior change [3, 9]: 9% | Incidence of physician-reported hypertrichosis/hirsutism [3, 9]: 35% | Incidence of physician-reported weight gain [3, 9]: 27.9%

C[C@]12C=CC(=O)C=C1CC[C@@H]1[C@@H]2C(=O)C[C@@]2(C)[C@H]1CC[C@]2(O)C(=O)CO [Prednisone, prednisone, reference compound]
clinically relevant psychiatric events, subjects [4]: 19.4% | incidence of behavior problems [4]: 32.3% | moderate/severe behavior problems, subjects [4]: 22.6% | activity at the mineralocorticoid receptor [1]: agonists | Any Behavior AESI, moderate/severe: F (AE count) [5]: 8 | Mean BMI z-score, value (SD) at 12 months of treatment [6, 10]: 1.068 (1.05) | Mean height percentile for age, change from baseline (SD) [6, 10]: −3.76 (10.44) | Mean height percentile for age, value (SD) at 12 months of treatment [6, 10]: 26.14 (24.21) | Mean BMI z-score, change from baseline (SD) [6, 10]: 0.459 (0.407) | Mean BMI z-score, change from baseline (SD) ([6]; CINRG prednisone trial, daily 0.75 mg/kg/day, 12 months, listed as prednisone): 0.46 | Mean BMI z-score, LS mean difference (SE) [6, 11]: 0.066 (0.193) | Mean height percentile for age, LS mean difference (SE) [6, 11]: 10.37 (3.86) | change in height Z scores from baseline to Week 24 [7]: growth deceleration
